Laboratory results published in patent publication US20110028554A1, “PHARMACEUTICAL COMPOSITIONS COMPRISING DIIODOTHYRONINE AND THEIR THERAPEUTIC USE” (UNIVERSITE JOSEPH FOURIER, priority 2007, published 2011).
“Also recorded” adds a separate entry of the source.

Key:
[1] = Growth rate (body weight) of Wistar rats with subcutaneous continuous-release pellet; format: in vivo
Description: Adult male rat bred in the animal room facilities of Laboratory of Fundamental and Applied. Bioenergetics (Wistar strain) or purchased from Charles-River Laboratories, Domaine des oncins, L'ARBRESLE France [(genetically obese normoglycemic (Zucker or Fa/Fa) or diabetic (ZDF)] were caged individually in stainless steel hanging cages and maintained in a 22° C., 50±10% relative humidity and 12 h:12 h light:dark environment. All animals were fed ad libitum with a standard rat chow (Safe A04, Villemoisson, France) and tap water. Body mass and food intake were recorded twice/thrice a week and fresh food was provided, at the same time to ensure minimal disturbance to the animals' food, behavior.
Eight-week old rats (300 g±10 g) were anesthetized by simultaneous intraperitoneal injection of diazepam 4 mg/kg and ketamine 100 mg/kg. In order to maintain body temperature during the surgery (10 min), animals were placed on a warm blanket. After interscapular shaving, a small incision of 0.5 cm of the skin allows the subcutaneous implantation of a small pellet (containing rT3 or 3′,3-T2) with a 10-gauge precision trochar. The pellets, manufactured by Innovative Research of America (Sarasota, Fla., USA) are constituted of a biodegradable matrix that effectively and continuously release the active product in the animal.
3-5 diiodothyronine (3-5 T2) or 3-3′diiodothyronine (3-3′ T2) were used at different doses (5, 0.5, or 0.1 mg/pellet) were implanted in order to provide a continuous and constant drug delivery over 60 days (which represents 25 μg, 2.5 μg or 0.5 μg/day/100 g BW).

[2] = Blood parameters (glucose, HbA1c, insulin, cholesterol, triglycerides) in ZDF rats; format: in vivo, Zucker Diabetic fatty (ZDF) rats; details: high dosage 25 μg/100 g BW
Description: Rats were genetically obese normoglycemic (Zucker or Fa/Fa), 10-11 week-old diabetic rats (ZDF) or genetic non-overweight diabetic (type 2 diabetes) rats (Goto-Kakizaki (GK) model).
The day of the study, after a fasted period overnight (18 h), blood samplings will be taken in awake rats from the tail vein.
The following biochemical parameters were analyzed: glycemia, insulinemia, HbA1c, TG and Cholesterol.
Insulin levels were determined with commercial kits (Linco Research).
Glucose and 3-hydroxybutyrate (3-HB) were measured, enzymatically and non esterified fatty acid (NEFA) by colorimetric assay (Wako Chemicals).
Triglycerides and cholesterol were measured by classical routine automate apparatus.

Structure (SMILES): N[C@@H](Cc1cc(I)c(Oc2ccc(O)cc2)c(I)c1)C(=O)O [3,5-T2, 3,5-diiodothyronine]
- Growth rate (body weight gain) vs placebo ([1]; high dosage 25 μg/100 g BW): did not show similar weight gain; also recorded: a biphasic curve was observed with a weight gain between the 10th and the 15th day
- Growth rate (body weight gain) vs placebo ([1]; low dosage 2.5 μg/100 g BW): the body mass did not change
- Plasmatic cholesterol at the end of the treatment vs placebo [2]: significantly lower
- Plasmatic triglycerides at the end of the treatment vs placebo [2]: not different between the two groups
- Glycated hemoglobin (HbA1c) ([2]; 4 weeks): significant decrease
- Plasmatic insulin concentration ([2]; 4 weeks): maintenance of insulin concentration at a high level; also recorded: increasing plasmatic insulin concentration
- Plasmatic glucose concentration ([2]; from week 1 over 4 weeks): dramatic decrease; also recorded: decreasing glucose concentration
